Measurements from the NIST ThermoML archive (doi:10.1016/j.jct.2015.09.012).

Columns and labels:
[1] = molar heat capacity at constant pressure; conditions: Liquid
[2] = 298.15 K; 101.33 kPa; Liquid; Vibrating tube method
[3] = molar heat capacity at constant pressure; xn = mol fraction of the nth substance listed; conditions: 100 kPa, Liquid, Large sample (1 g) DSC

CC12CCC(CC1)C(C)(C)O2 [1,3,3-trimethyl-2-oxabicyclo[2.2.2]octane]
[1]
Conditions | molar heat capacity at constant pressure [J/K/mol]
293.26 K, 101.33 kPa, Small sample (50 mg) DSC | 266.9
303.48 K, 101.33 kPa, Small sample (50 mg) DSC | 273
304.7 K, 100 kPa, Large sample (1 g) DSC | 273.3
309.6 K, 100 kPa, Large sample (1 g) DSC | 276.4
313.71 K, 101.33 kPa, Small sample (50 mg) DSC | 279.5
314.6 K, 100 kPa, Large sample (1 g) DSC | 279.5
319.5 K, 100 kPa, Large sample (1 g) DSC | 282.6
323.93 K, 101.33 kPa, Small sample (50 mg) DSC | 285.2
324.5 K, 100 kPa, Large sample (1 g) DSC | 285.1
334.16 K, 101.33 kPa, Small sample (50 mg) DSC | 290.8
344.38 K, 101.33 kPa, Small sample (50 mg) DSC | 297.7

Conditions | mass density [kg/m3]
[2] | 920.51

CC12CCC(CC1)C(C)(C)O2 [1,3,3-trimethyl-2-oxabicyclo[2.2.2]octane] + CCO
molar heat capacity at constant pressure [J/K/mol], [3]
Conditions | 304.7 K | 309.6 K | 314.6 K | 319.5 K | 324.5 K
x1 = 0.0506 | 123.9 | 126.2 | 128.6 | 131.1 | 133.5
x1 = 0.099 | 132 | 134.6 | 137.1 | 139.7 | 142.1
x1 = 0.1999 | 149 | 151.8 | 154.6 | 157.1 | 160
x1 = 0.3007 | 166 | 169 | 171.8 | 174.9 | 177.7
x1 = 0.3956 | 181.7 | 184.9 | 188.1 | 191.1 | 194.1
x1 = 0.5002 | 199.4 | 202.5 | 205.5 | 208.5 | 211.3
x1 = 0.5975 | 214.3 | 217.4 | 221.5 | 224.5 | 227.4
x1 = 0.7017 | 231.6 | 235.1 | 238 | 241.2 | 244.1
x1 = 0.8065 | 247.2 | 250.5 | 253.6 | 256.7 | 259.3
x1 = 0.8964 | 259.8 | 263.7 | 267 | 269.9 | 272.5
x1 = 0.9501 | 267 | 269.9 | 273.4 | 275.8 | 279
x1 = 1 | 273.3 | 276.4 | 279.5 | 282.6 | 285.1

CCO [ethanol]
[1], 100 kPa, Large sample (1 g) DSC
Conditions | molar heat capacity at constant pressure [J/K/mol]
304.7 K | 115.3
309.6 K | 117.3
314.6 K | 119.6
319.5 K | 121.9
324.5 K | 124.2

Conditions | mass density [kg/m3]
[2] | 785.2

CCO [ethanol] + CC12CCC(CC1)C(C)(C)O2
[3], x2 = 0
Conditions | molar heat capacity at constant pressure [J/K/mol]
304.7 K | 115.3
309.6 K | 117.3
314.6 K | 119.6
319.5 K | 121.9
324.5 K | 124.2
